Measurements as given in patent US20250188075A1, “SUBSTITUTED HETEROCYCLIC CSNK1 INHIBITORS” (The Broad Institute, Inc., priority 2022, published 2025).
pIC50: −log10 of the molar value. Read-outs that look alike come from different tables or passages of the source.

What was measured:
[1] = system: total-p53 in MCF-7 cells; assay: HTRF total-p53 in MCF-7 cells; assay type: cell-based; details: median, read-out: HTRF total-p53 MCF-7, IC50 - [mol/l] (median)
Procedure: Day 1: MCF-7 cells were seeded (10,000 cells in 12 μl/well) in a 384-well-Small Volume-plate (Greiner Bio One #784075) in culture medium (RPMI 1640; (Biochrom; #F 1275; without PhenolRed)+FCS (final: 10%); (Biochrom; #S 0415)+Insulin (bovine); (final: 10 μg/mL, Biochrom; #K 3510)+L-Alanyl-L-Glutamine; (final: 2 mM, Biochrom; #K 0302)+Natriumpyruvat; (final: 1 mM, Biochrom; #L 0473)+Non Essentiell Amino Acids; (final: 1×, Biochrom; #K 0293)). The cells were then treated with different compounds or DMSO (added with the HP Dispenser) and incubated for 2 h at 37° C. Following incubation, the cells were lysed in 4 μl of lysis buffer for 1 h shaking at RT. Finally, 4 μl of antibody solution was added and the samples are incubated overnight at RT, shaking.
Total-p53 was detected in a sandwich assay format using 2 different specific antibodies, one labeled with Eu3+-Cryptate (donor) and the second with d2 (acceptor). Kit: HTRF total p53 detection assay (Cisbio Cat: 64T53PEG).
Day 2: the plate was read on PHERAstar FS (BMG Labtech settings; optic module: HTRF; integration start: 60 us; integration time: 400 μs; flash lamp). IC50 values were calculated using the DRC application in ShiNy Analysis Platform-SNAP.”

[2] = system: LoVo cells; assay: LoVo cell proliferation assay, CTG method; assay type: cell-based; details: 96 h, median, read-out: 2D-PROLI LoVo CTG 96 h, IC50 - [mol/l] (median)
Procedure: CELL PROLIFERATION ASSAY CTG METHOD, 384-well version: Day 1: plate 400 cells/30 μL/well in growth medium (RPMI 1640 (Gibco #61870-10; with Glutamax)+10% FBS) in 384-well black plates (Corning #3571). Plated sister wells in a separate plate for time zero determination. Incubated all plates overnight at 37° C. Day 2: added test compounds in serial dilutions using the HP D300 Digital Dispenser and incubate at 37° C. for 96 h. Measured time zero plate: add 30 μL/well CTG solution (Promega CellTiter-Glo solution (catalog #G7573)) to wells in time zero plate; incubated for 2 minutes in a orbital shaker to induce cell lysis; allowed the plate to incubate at room temperature for additional 10 min to stabilize luminescent signal and read luminescence on PheraStar (rapid mode-0.02 sec/well; GAIN 3000). Day 6: Added 30 μL/well CTG solution to all test wells, incubated for 2 minutes in a orbital shaker to induce cell lysis; allowed the plate to incubate at room temperature for additional 10 min to stabilize luminescent signal and read luminescence on PheraStar (rapid mode-0.02 sec/well; GAIN 3000). Proliferation IC50s were calculated using the DRC application in ShiNy Analysis Platform-SNAP.”

[3] = target: human CSNK1A1 (Homo sapiens (Human), UniProt P48729); assay: CSNK1A1 assay (ADP-Glo, 1 μM ATP); assay type: biochemical; details: median, read-out: CSNK1A1 Low ATP IC50 [mol/l] (median)
Procedure: CSNK1A1-inhibitory activity of compounds of the present invention in presence of 1 μM adenosine-tri-phosphate (ATP) was quantified employing the CSNK1A1 assay as described in the following paragraphs. In essence, the enzyme activity is measured by quantification of the adenosine-di-phosphate (ADP), which is generated as a co-product of the enzyme reaction, via the “ADP-Glo™ Kinase Assay” kit from the company Promega. This detection system works as follows: In a first step the ATP not consumed in the kinase reaction is quantitatively converted to CAMP employing an adenylate cyclase (“ADP-Glo-reagent”), then the adenylate cyclase is stopped and the ADP generated in the kinase reaction converted to ATP which generates in a luciferase-based reaction a glow-luminescence signal (“Kinase Detection Reagent”).
Recombinant fusion protein of N-terminal Glutathion-S-Transferase (GST) and full-length human CSNK1A1, expressed by baculovirus infected insect cells and purified via Glutathion affinity chromatography, was purchased from Life Technologies (product no. PV4174) and used as enzyme. As substrate for the kinase reaction the biotinylated peptide biotin-Ahx-KRRRAL-pS-VASLPGL (C-terminus in amide form) was used which can be purchased e.g. from the company Biosyntan (Berlin-Buch, Germany).
For the assay 50 nl of a 100-fold concentrated solution of the test compound in DMSO was pipetted into a white 1536-well microtiter plate (Greiner Bio-One, Frickenhausen, Germany), 2 μL of a solution of CSNK1A1 in aqueous assay buffer [50 mM HEPES pH 7.5, 10% (v/v) glycerol, 10 mM MgCl2, 50 mM NaCl, 1 mM dithiothreitol, 0.01% (w/v) bovine serum albumin, 0.01% (v/v) Triton X-100] were added and the mixture was incubated for 15 min at 22° C. to allow pre-binding of the test compounds to the enzyme before the start of the kinase reaction. Then the kinase reaction was started by the addition of 3 μL of a solution of ATP (1.67 μM=>final conc. in the 5 μL assay volume is 1 μM) and peptide substrate (50 μM=>final conc. in the 5 μL assay volume is 30 μM) in assay buffer and the resulting mixture was incubated for a reaction time of 30 min at 22° C. The concentration of CSNK1A1 was adjusted depending of the activity of the enzyme lot and was chosen appropriate to have the assay in the linear range, a typical concentrations are about 0.0375 ng/μL. The reaction was stopped by the addition of 2.5 μL of “ADP-Glo-reagent” (1:1.5 fold diluted with water) and the resulting mixture was incubated at 22° C. for 1 h to convert the ATP not consumed in the kinase reaction completely to CAMP. Subsequently 2.5 μL of the “kinase detection reagent” (1.2 fold more concentrated than recommended by the producer) were added, the resulting mixture was incubated at 22° C. for 1 h and then the luminescence measured with a suitable measurement instrument (e.g. Viewlux™ from Perkin-Elmer). The amount of emitted light was taken as a measure for the amount of ADP generated and thereby for the activity of the CSNK1A1.
The data were normalised (enzyme reaction without inhibitor=0% inhibition, all other assay components but no enzyme=100% inhibition).

[4] = Homo sapiens, MCF7, 2 h incubation

Chain of human CSNK1A1 (P48729 whole entry): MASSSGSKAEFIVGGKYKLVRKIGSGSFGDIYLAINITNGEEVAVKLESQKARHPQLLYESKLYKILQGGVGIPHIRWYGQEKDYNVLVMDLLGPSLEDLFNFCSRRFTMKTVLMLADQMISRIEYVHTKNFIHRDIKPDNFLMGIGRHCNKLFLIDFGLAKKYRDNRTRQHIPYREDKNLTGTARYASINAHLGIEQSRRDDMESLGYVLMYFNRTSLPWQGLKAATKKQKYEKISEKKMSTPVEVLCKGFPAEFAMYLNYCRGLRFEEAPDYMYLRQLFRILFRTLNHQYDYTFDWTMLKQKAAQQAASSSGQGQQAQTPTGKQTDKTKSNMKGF

Structure (SMILES) | pIC50 [1, 4] | pIC50 ([2]; Homo sapiens) | pIC50 [3] | pIC50 ([1]; 2 h incubation) | pIC50 [2]
Cc1nocc1CC(=O)Nc1cc(-c2[nH]c3cccnc3c2-c2ccccn2)ccn1 [Example 30, 2-(3-methylisoxazol-4-yl)-N-[4-[3-(2-pyridyl)-^1H-pyrrolo[3,2-b]pyridin-2-yl]-2-pyridyl]acetamide] | 6.65 | 4.98 | 8.58 | – | –
O=C(Cc1cc(C2CC2)on1)Nc1cc(-c2[nH]c3cccnc3c2-c2ccccn2)ccn1 [Example 27, 2-(5-cyclopropylisoxazol-3-yl)-N-[4-[3-(2-pyridyl)-^1H-pyrrolo[3,2-b]pyridin-2-yl]-2-pyridyl]acetamide] | 6.77 | 6.13 | 8.80 | – | –
O=C(Nc1cc(-c2[nH]c3ccc(F)nc3c2-c2ccccn2)ccn1)[C@@H](CC(F)F)c1ccc(F)cc1 [Example C2, reference compound] | – | – | 8.92 | 7.14 | 6.94
Cc1ncc(CC(=O)Nc2cc(-c3[nH]c4cccnc4c3-c3ccccn3)ccn2)o1 [Example 24, 2-(2-methyloxazol-5-yl)-N-[4-[3-(2-pyridyl)-^1H-pyrrolo[3,2-b]pyridin-2-yl]-2-pyridyl]acetamide] | 6.76 | 5.62 | 8.71 | – | –
O=C(Cc1ccno1)Nc1cc(-c2[nH]c3cccnc3c2-c2ccccn2)ccn1 [Example 23, 2-isoxazol-5-yl-N-[4-[3-(2-pyridyl)-^1H-pyrrolo[3,2-b]pyridin-2-yl]-2-pyridyl]acetamide] | 6.92 | 5.27 | 8.85 | – | –
Cn1nc(CC(=O)Nc2cc(-c3[nH]c4cccnc4c3-c3ccccn3)ccn2)cc1C(F)(F)F [Example 21, 2-[1-methyl-5-(trifluoromethyl)pyrazol-3-yl]-N-[4-[3-(2-pyridyl)-^1H-pyrrolo[3,2-b]pyridin-2-yl]-2-pyridyl]acetamide] | 7.01 | 6.37 | 8.79 | – | –
Cn1cc(C(CC(F)F)C(=O)Nc2cc(-c3[nH]c4cccnc4c3-c3ccccn3)ccn2)cn1 (centres unmarked) [Example 19, 4,4-difluoro-2-(1-methylpyrazol-4-yl)-N-[4-[3-(2-pyridyl)-^1H-pyrrolo[3,2-b]pyridin-2-yl]-2-pyridyl]butanamide] | 6.39 | 5.26 | 8.17 | – | –
Cc1nc(CC(=O)Nc2cc(-c3[nH]c4cccnc4c3-c3ccccn3)ccn2)co1 [Example 25, 2-(2-methyloxazol-4-yl)-N-[4-[3-(2-pyridyl)-^1H-pyrrolo[3,2-b]pyridin-2-yl]-2-pyridyl]acetamide] | 6.49 | 5.68 | 8.55 | – | –
O=C(Nc1cc(-c2[nH]c3nccnc3c2-c2ccccn2)ccn1)[C@@H](CC(F)F)c1ccc(F)cc1 [Example C1, reference compound] | – | – | 8.90 | 7.14 | 6.68
O=C(Cc1ccon1)Nc1cc(-c2[nH]c3cccnc3c2-c2ccccn2)ccn1 [Example 10, 2-isoxazol-3-yl-N-[4-[3-(2-pyridyl)-^1H-pyrrolo[3,2-b]pyridin-2-yl]-2-pyridyl]acetamide] | 6.58 | 5.49 | 8.71 | – | –
Cc1cc(CC(=O)Nc2cc(-c3[nH]c4cccnc4c3-c3ccccn3)ccn2)on1 [Example 13, 2-(3-methylisoxazol-5-yl)-N-[4-[3-(2-pyridyl)-^1H-pyrrolo[3,2-b]pyridin-2-yl]-2-pyridyl]acetamide] | 6.82 | 5.50 | 8.77 | – | –
Cc1cc(CC(=O)Nc2cc(-c3[nH]c4cccnc4c3-c3ccccn3)ccn2)no1 [Example 26, 2-(5-methylisoxazol-3-yl)-N-[4-[3-(2-pyridyl)-^1H-pyrrolo[3,2-b]pyridin-2-yl]-2-pyridyl]acetamide] | 6.75 | 5.68 | 8.69 | – | –
Cc1cc(CC(=O)Nc2cc(-c3[nH]c4cccnc4c3-c3ccccn3)ccn2)n(C)n1 [Example 14] | 6.84 | 5.43 | 8.71 | – | –
Cn1nc(CC(=O)Nc2cc(-c3[nH]c4cccnc4c3-c3ccccn3)ccn2)cc1C1CC1 [Example 29, 2-(5-cyclopropyl-1-methyl-pyrazol-3-yl)-N-[4-[3-(2-pyridyl)-^1H-pyrrolo[3,2-b]pyridin-2-yl]-2-pyridyl]acetamide] | 6.70 | 6.11 | 8.66 | – | –
Cc1cc(CC(=O)Nc2cc(-c3[nH]c4cccnc4c3-c3ccccn3)ccn2)nn1C [Example 16, 2-(1,5-dimethylpyrazol-3-yl)-N-[4-[3-(2-pyridyl)-^1H-pyrrolo[3,2-b]pyridin-2-yl]-2-pyridyl]acetamide] | 6.71 | 5.82 | 8.56 | – | –
O=C(Cc1ccns1)Nc1cc(-c2[nH]c3cccnc3c2-c2ccccn2)ccn1 [Example 22, 2-isothiazol-5-yl-N-[4-[3-(2-pyridyl)-^1H-pyrrolo[3,2-b]pyridin-2-yl]-2-pyridyl]acetamide] | 6.92 | 5.70 | 8.83 | – | –
O=C(Cc1cnc2ccccc2n1)Nc1cc(-c2[nH]c3cccnc3c2-c2ccccn2)ccn1 [Example 6, N-[4-[3-(2-pyridyl)-^1H-pyrrolo[3,2-b]pyridin-2-yl]-2-pyridyl]-2-quinoxalin-2-yl-acetamide] | 7.39 | 6.75 | 8.96 | – | –
O=C(Cc1ccn(CC(F)(F)F)n1)Nc1cc(-c2[nH]c3cccnc3c2-c2ccccn2)ccn1 [Example 20, N-[4-[3-(2-pyridyl)-^1H-pyrrolo[3,2-b]pyridin-2-yl]-2-pyridyl]-2-[1-(2,2,2-trifluoroethyl)pyrazol-3-yl]acetamide] | 6.74 | 5.86 | 8.73 | – | –
O=C(Cc1cnco1)Nc1cc(-c2[nH]c3cccnc3c2-c2ccccn2)ccn1 [Example 4] | 6.86 | 5.50 | – | – | –
